Assay results reported in ChEMBL document CHEMBL2169808, “Discovery of pyrazole carboxylic acids as potent inhibitors of rat long chain L-2-hydroxy acid oxidase” (Bioorg Med Chem Lett, 2012).

How the values were obtained:
[1] = target: T1, 2-Hydroxyacid oxidase 2 (Homo sapiens) (UniProt Q9NYQ3); experiment: Inhibition of human Hao2-mediated oxidation of 2-hydroxyoctanoic acid assessed as proportionate release of H2O2 at 1 uM
T1 sequence (whole entry): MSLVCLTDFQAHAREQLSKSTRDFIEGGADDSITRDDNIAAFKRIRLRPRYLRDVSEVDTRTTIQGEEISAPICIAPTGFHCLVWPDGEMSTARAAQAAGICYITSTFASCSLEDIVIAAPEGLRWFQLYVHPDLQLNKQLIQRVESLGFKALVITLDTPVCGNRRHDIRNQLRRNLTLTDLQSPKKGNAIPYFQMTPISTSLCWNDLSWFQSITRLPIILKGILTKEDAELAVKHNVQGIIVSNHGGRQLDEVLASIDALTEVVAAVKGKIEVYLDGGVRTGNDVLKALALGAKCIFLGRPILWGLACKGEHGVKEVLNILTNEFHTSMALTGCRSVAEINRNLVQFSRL

[2] = target: T2, 2-Hydroxyacid oxidase 2 (Rattus norvegicus) (UniProt Q07523); experiment: Inhibition of rat Hao2-mediated oxidation of 2-hydroxyoctanoic acid assessed as proportionate release of H2O2 at 1 uM
T2 sequence (whole entry): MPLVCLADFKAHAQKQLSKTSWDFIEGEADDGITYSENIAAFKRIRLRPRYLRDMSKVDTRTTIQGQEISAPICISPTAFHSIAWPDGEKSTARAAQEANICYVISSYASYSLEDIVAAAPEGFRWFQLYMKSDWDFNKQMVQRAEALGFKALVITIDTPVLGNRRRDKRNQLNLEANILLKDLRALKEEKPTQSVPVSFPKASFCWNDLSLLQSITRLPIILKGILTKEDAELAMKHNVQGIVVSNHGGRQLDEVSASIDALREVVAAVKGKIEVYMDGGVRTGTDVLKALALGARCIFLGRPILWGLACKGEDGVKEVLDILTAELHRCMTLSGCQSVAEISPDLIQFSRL

[3] = target: T2, 2-Hydroxyacid oxidase 2 (Rattus norvegicus); experiment: Inhibition of rat Hao2-mediated oxidation of 2-hydroxyoctanoic acid assessed as proportionate release of H2O2 at 10 uM
[4] = target: T1, 2-Hydroxyacid oxidase 2 (Homo sapiens); experiment: Inhibition of human Hao2-mediated oxidation of 2-hydroxyoctanoic acid assessed as proportionate release of H2O2 at 10 uM
[5] = organism: Rattus norvegicus; experiment: Selectivity ratio of IC50 for rat Hao1 to IC50 for rat Hao2
[6] = target: T3, 2-Hydroxyacid oxidase 2 (Homo sapiens, UniProt Q9NYQ3); experiment: Inhibition of human Hao2-mediated oxidation of 2-hydroxyoctanoic acid assessed as proportionate release of H2O2
T3 sequence (Q9NYQ3 whole entry): T1 sequence (whole entry)

Cc1n[nH]c(C(=O)O)c1Cc1ccc(C(=O)O)cc1
inhibition [1]: 3%
inhibition [2]: 40%
inhibition [3]: 69%
inhibition [4]: 22%
Ratio IC50 [5]: > 150

Cc1n[nH]c(C(=O)O)c1CCc1ccc(F)cc1
inhibition [1]: 5%
inhibition [2]: 31%
inhibition [3]: 81%
inhibition [4]: 16%
Ratio IC50 [5]: > 150

Cc1n[nH]c(C(=O)O)c1Cc1cccc(C(=O)O)c1
inhibition [1]: 3%
inhibition [2]: 7%
inhibition [3]: 60%
inhibition [4]: 0%
Ratio IC50 [5]: > 150

Cc1n[nH]c(C(=O)O)c1-c1ccc(-c2ccc(F)cc2)cc1
inhibition [1]: 19%
inhibition [2]: 13%
inhibition [3]: 65%
inhibition [4]: 55%
Ratio IC50 [5]: > 150

Cc1n[nH]c(C(=O)O)c1Cc1ccccc1-c1ccc(F)cc1
inhibition [1]: 11%
inhibition [2]: 21%
inhibition [3]: 73%
inhibition [4]: 56%
Ratio IC50 [5]: > 150

Cc1n[nH]c(C(=O)O)c1-c1cccc(-c2ccc(F)cc2)c1
IC50 [6]: 950 nM
inhibition [2]: 35%
inhibition [3]: 79%

Cc1n[nH]c(C(=O)O)c1Cc1ccc(C(F)(F)F)cc1
inhibition [1]: 9%
inhibition [2]: 35%
inhibition [3]: 71%
inhibition [4]: 12%
Ratio IC50 [5]: > 150

Cc1n[nH]c(C(=O)O)c1Cc1cc2ccccc2o1
inhibition [1]: 26%
inhibition [2]: 47%
inhibition [3]: 87%
inhibition [4]: 66%
Ratio IC50 [5]: > 150

Cc1n[nH]c(C(=O)O)c1Cc1ccc(C#N)cc1
inhibition [1]: 0%
inhibition [2]: 33%
inhibition [3]: 85%
inhibition [4]: 6%
Ratio IC50 [5]: > 150

Cc1n[nH]c(C(=O)O)c1Cc1ccccc1Oc1ccccc1
inhibition [1]: 9%
inhibition [2]: 10%
inhibition [3]: 69%
inhibition [4]: 49%
Ratio IC50 [5]: > 150
